Series [1] relates to THP1 human AML cell line. The series is described as follows: Viability of human AML cells (THP1) treated in culture with iCT in combination with DON. It is filed as cell-based. The conditions noted are these: different doses of iCT (cytarabine+doxorubicin) in combination with DON, 72 h in vitro, FIG. 5A. As to the method:
Arrows show the range where synergism occurs. […] FIG. 5C provides the chemical structure of glutamine and 6-diazo-5-oxo-L-norleucine (DON). FIGS. 5D-5E show survival of AML-bearing mice treated with iCT (days 7-11) with or without short term 6-diazo-5-oxo-L-norleucine (DON; 0.3 mg/kg), showing the treatment schedule (FIG. 5D) and Kaplan-Meier survival curves (FIG. 5E). iCT+DON: both given at same time; iCT+DON^+3: DON started 3 days after first dose of iCT. FIGS. 5F-5G show survival of AML-bearing mice treated with iCT (days 7-11) with or without continuous DON ([…]), showing the treatment schedule (FIG. 5F) and Kaplan-Meier survival curves (FIG. 5G). iCT+DON^post: DON started after last dose of iCT.
(§1) To confirm that glutamine metabolism plays a functional role in protecting AML cells from chemotherapy, human AML cells (THP1) were treated in culture with iCT in combination with 6-diazo-5-oxo-L-norleucine (DON), a glutamine analog and antagonist that inhibits all glutamine-dependent enzymes (FIG. 5C). […] Mice carrying AML were then treated in combination with DON at different regimens (FIG. 5D).

Series [2] in a line: Tolerability of daily DON injections in mice carrying AML. The series is classed as in vivo, mouse. The note with it: daily injections extended for more than 5 days. The procedure: as §1
Series [3] concerns MLL-AF9 AML cells. The experiment in a line: Survival of AML-bearing mice treated with iCT with or without DON. It is filed as in vivo, mouse. As to the method:
Arrows show the range where synergism occurs. […] FIG. 5C provides the chemical structure of glutamine and 6-diazo-5-oxo-L-norleucine (DON). FIGS. 5D-5E show survival of AML-bearing mice treated with iCT (days 7-11) with or without short term 6-diazo-5-oxo-L-norleucine (DON; 0.3 mg/kg), showing the treatment schedule (FIG. 5D) and Kaplan-Meier survival curves (FIG. 5E). iCT+DON: both given at same time; iCT+DON^+3: DON started 3 days after first dose of iCT. […]
To test this hypothesis, a mouse model was used in which cells express MLLAF9, driving leukemia development, luciferase, and GFP. The mouse model allows real-time monitoring of leukemic burden through bioluminescence imaging, and therefore identification of the moment of maximal response to iCT. Bone marrow cells derived from terminally ill primary mice were intravenously transplanted into secondary wildtype recipients, leading to the development of a very aggressive disease that can be monitored in real time since only AML cells express luciferase and GFP. Mice were treated with a chemotherapy regimen that closely mimics the one used in patients (cytarabine for 5 days and doxorubicin for the first 3 days) or vehicle, and followed disease progression using bioluminescence imaging (FIG. 6A). It was discovered that the amount of maximal response occurs 3-4 days after the last dose of chemotherapy (FIG. 6B). This means that at this moment, after the selection pressure of chemotherapy, massive neighboring cell death, and possibly other stress factors such as niche alteration, certain cells have adapted and are now started to grow again.
as §1

Molecules are shown by their SMILES.

Regarding `[N-]=[N+]=CC(=O)CC[C@H](N)C(=O)O` [DON, 6-diazo-5-oxo-L-norleucine], the “interaction of iCT and DON on viability of THP1 cells” value in series [1] is listed as “synergy at several doses”. Further, the “lethality of daily DON injections” value in series [2] is “proved lethal”. Moreover, the “survival of AML-bearing mice, DON given together with iCT, versus iCT alone” value in series [3] (DON 0.3 mg/kg daily for 5 days at the same time as iCT (cytarabine 100 mg/kg 5 days + doxorubicin 3 mg/kg first 3 days), FIG. 5B/5E) was “did not extend survival”. Besides, the “survival of AML-bearing mice, DON short treatment” value in series [3] (DON daily for 5 days at 0.3 mg/kg, FIG. 5B/5E) was “did not have much effect”. The “interaction between iCT and DON treatment on survival” value in series [3] (DON every other day at 0.3 mg/kg, extended treatment after iCT, FIG. 5G) is recorded as “clear synergism”. In addition, the “survival of AML-bearing mice, DON every other day after iCT, versus iCT alone” value in series [3] (DON every other day at 0.3 mg/kg, started after last dose of iCT (iCT+DONpost), p=0.0019, FIG. 5F/5G) was “increased substantially”. Besides, the “survival of AML-bearing mice, DON delayed 3 days after first dose of iCT” value in series [3] (iCT+DON+3: short-term DON 0.3 mg/kg started 3 days after first dose of iCT, spanning the moment of maximal response, FIG. 5E) is given as “a clear survival benefit was achieved”.

Values taken from patent US20210177880A1, “METHODS AND COMPOSITIONS FOR TREATING ACUTE MYELOID LEUKEMIA” (President and Fellows of Harvard College, priority 2017, published 2021).
